Among the data in ChEMBL document CHEMBL2057197, “Synthesis and evaluation of water-soluble resveratrol and piceatannol via BGLation” (Bioorg Med Chem Lett, 2012) are Activity values, retold here.

The structures appear in SMILES notation. Active and inactive are the calls of the source. The rule behind the calls is not given here.

Test [1] concerns 3T3-L1. Kind of test: Induction of mitochondrial fusion in mouse 3T3L1 cells at 10 to 50 uM after 48 hrs by green Fm-staining. In kind it is functional, cell-based.
The subject of test [2] is 3T3-L1. Description: Reduction in triglyceride level in mouse 3T3L1 cells at 10 to 50 uM after 48 hrs. In kind it is functional, cell-based.

For the compound `Oc1cc(O)cc(/C=C/c2ccc(O)c(O)c2)c1`, the outcome in test [1] and in test [2] was Active.
As for `OCC(CO)OCC(COC(CO)CO)n1cc(COc2cc(O)cc(/C=C/c3ccc4c(c3)OCO4)c2)nn1`, the outcome in test [1] was Active. The outcome in test [2] was inactive.
The matching figures for `OCC(CO)OCC(COC(CO)CO)n1cc(COc2cc(O)cc(/C=C/c3ccc(O)cc3)c2)nn1`: “inactive” and “inactive”.
In the case of `OCC(CO)OCC(COC(CO)CO)n1cc(COc2cc(O)cc(/C=C/c3ccc(O)c(O)c3)c2)nn1`, the result in test [1] and in test [2] was Active.
For the compound `COc1ccc(/C=C/c2cc(O)cc(OCc3cn(C(COC(CO)CO)COC(CO)CO)nn3)c2)cc1`, the outcome in test [1] and in test [2] was inactive.
